Laboratory results reported in patent US12613246B2, “Fluorescent probe and protein labeling method” (SHANGHAI GLORY CAPITAL MANAGEMENT LTD., priority 2018, dated 2026).

Experiments:
[1] = Fluorescence emission spectra of probes in glycerol and methanol (viscosity response); assay type: physicochemical; conditions: maximum excitation wavelength of each probe; for Fluorescence ratio in glycerol methanol: 1×10^−5 M; for Emission wavelength: medium not given
Text: Respectively dissolve Probe 1-32 and Reference Probes BG-CCVJ and BG-Gly-CCVJ in dimethyl sulfoxide so as to prepare a mother liquid with a concentration of 1×10^−2M; add the mother liquid to glycerol and methanol respectively and mix them well to prepare a solution with a concentration of 1×10^−5 M. Based on different probes, the fluorescence emission spectrum of each probe are detected under the same conditions with maximum excitation wavelength of each probe.
The probes are sensitive to the change of viscosity and have viscosity response.

[2] = Fluorescence of free probe before reaction with the protein tag; assay type: physicochemical
Protocol: (§1) Mix the probe with corresponding protein tag to obtain the mixed sample, wherein the final concentration of probe in the mixed sample is 5 μM, and the final concentration of protein tags is 10 μM; hatch the mixed sample at 37° C. for 1 h, and detect its fluorescence intensity change by using the fluorescence spectrophotometer.
(§2) According to the free probe quantum yield shown in Table 1, the fluorescence of the probes of and reference probes are extremely low before the reaction with the protein tag, and is close to the background fluorescence level of PBS buffer solution. […] However, according to the quantum yield of the binding protein tag, the fluorescence signal enhancement can be detected in the corresponding excitation emission channel after the probe reacts with the protein tag with hundreds to one thousand fold fluorescence activation times and very high brightness; the reference probes also can activate fluorescence, but the fluorescence quantum yield and brightness after activation are quite low.

[3] = test system: SNAP protein tag; assay: Fluorescence activation after mixing probe with corresponding protein tag (SNAP); assay type: biochemical; conditions: probe 5 μM, protein tag 10 μM, 37° C., 1 h
Protocol: as §1, §2

[4] = test system: Hela cells; assay: Labeling of Hela cells expressing protein tags versus Hela-WT cells, confocal microscopy; assay type: cell-based; conditions: probe 5 μM, 37° C., 2 h
Protocol: Take Hela cells as an example to detect the labeling effect of the compounds in mammalian cells. Hela cells and Hela-WT cells (Hela primitive cells without expressing protein tags), which can express protein tags stably, are planted in a glass bottom 96-well plate of 14 mm for 10 h. Add Probe 16, Probe 17 and Probe 18 into a culture medium respectively and dilute them to 5 μM. Hatch the cells in a carbon dioxide incubator at 37° C. for 2 h. Detect the fluorescence changes of labeled cells by using Leica TPS-8 confocal microscopy.

[5] = test system: Hela cells; assay: Labeling of protein tags located in different organelles of Hela cells without washing; assay type: cell-based; conditions: probe 0.2 μM, 2 h
Protocol: Plant Hela cells (5000 cells/well) in a glass bottom plate of 96-well for 14 h, and then use Lipo2000 kit to transfect protein tags to locate plasmids in different organelles. After 24 h of transfection, remove the original culture medium, wash the culture medium twice with phenol free red DMEM culture medium, and hatch the cells with phenol free red medium containing probe (0.2 μM) for 2 h, and detect the effect of cell labeling by using Leica TCS-8 confocal microscopy imaging.

[6] = test system: Hela cells; assay: Two-colour orthogonal labeling of CLIP-histone and mito-SNAP in the same Hela cell; assay type: cell-based; conditions: Probe 16 and Probe 9, 0.2 μM, 2 h, without washing
Protocol: Plant Hela cells (5000 cells/well) in a glass bottom plate of 96-well for 14 h; transfect pcdna3.1-CLIP-histone (CLIP protein labeled chromosome localization plasmid) and pcdna3.1-mito-SNAP (SNAP protein labeled […] localization plasmid) by using Lipo2000 kit (0.1 μg/well). After 24 h of transfection, remove the original culture medium, and wash the culture medium twice with phenol free red DMEM culture medium, and hatch the cells respectively with phenol free red medium containing Probe 16 and Probe 9 (0.2 μM) for 2 h, and detect the effect of cell labeling by using Leica TCS-8 confocal microscopy imaging.

[7] = test system: SNAP protein tag; assay: Labeling of SNAP protein tag expressed in the liver of living mice; assay type: in vivo; conditions: 0.4 μM in 200 μL PBS intravenously, 6 h
Protocol: Firstly, introduce the plasmid pcdna3.1-SNAP (sample group) with SNAP protein expressing and the contrastive plasmid pcdna3.1-CAT (contrastive group) without SNAP protein expressing into mice. In this method, the plasmid is dissolved in a large volume of solution and rapidly injected into mice intravenously. The plasmid is absorbed by mouse liver, and then express the target protein. After 24 h of plasmid injection, inject the Probe 16 (0.4 μM) dissolved in 200 μL of PBS into mice intravenously to label SNAP protein tag. After 6 h, dissect the mice, and detect liver fluorescence differences by using Kodak multispectral vivo imaging system.

[8] = test system: SNAP-IAA17-H2B; assay: Probe fluorescence during IAA-induced protein degradation (AID system) in Hela cells; assay type: cell-based; conditions: probe 1 μM; 140 min after IAA added
Protocol: In order to verify that the fluorescence activation of the probe is related to the existence of protein, SNAP protein of mammalian cells is taken as an example, and AID degradation system is an example of detecting the fluorescence changes of probes combined with SNAP after protein degradation in Hela cells. Firstly, plant Hela cells (20000/cm^2) in a glass bottom cell culture medium of 20 mm for 14 h, and then transect the plasmids pcdna3.1-TIR1 and pcdna3.1-SNAP-IAA17-H2B by means of Lipofectmain2000 transfection reagent (Invertogen Co.). After the cells are transfected for 24 h, replace the cells labeled by the original cell culture medium with phenol red DMEM culture medium containing Probe 16 (1 μM), and hatch the cee sample in a carbon dioxide incubator at 37° C. for 1 h. After labeling, detect the fluorescence signal of the labeled cells by using Leica SP8 laser confocal microscopy imaging, and add indoleacetic acid (IAA) to induce the protein degradation of SNAP-IAA17-H2B, and detect the changes of cell fluorescence during protein degradation.

[9] = test system: CLIP protein tag; assay: Fluorescence activation after mixing probe with corresponding protein tag (CLIP); assay type: biochemical; conditions: probe 5 μM, protein tag 10 μM, 37° C., 1 h
Protocol: as §1, §2

Row | Structure (SMILES) | Fluorescence ratio in glycerol methanol [1] | Emission wavelength [1] [nm] | Quantum yield of free probe [2] | Quantum yield of binding protein tags [9] | Fluorescence activation multiple [3] | Quantum yield of binding protein tags [3] | Fluorescence signal in Hela-WT cells (without protein tags) [4] | Increase of fluorescence signal in cells expressing protein tags [4] [times] | Display of subcellular organelle structures [5] | Display of mitochondria and chromosomes in the same cell [6] | Liver fluorescence intensity of pcdna3.1-SNAP mice relative to the contrastive group [7] | Liver fluorescence of mice injected with contrastive plasmid pcdna3.1-CAT [7] | Fluorescence signal of SNAP-IAA17-H2B protein after IAA addition [8] | Fluorescence activation multiple [9]
1 | CN(CCOC(=O)NCc1ccc(COc2nc(N)nc3[nH]cnc23)cc1)c1ccc2c(c1)C(C)(C)c1cc(/C=C(\C#N)C(=O)OC(C)(C)C)sc1-2 [Probe 16] | 1421 | 645 | <0.001 | – | 842 | 0.71 | no corresponding fluorescence signal is detected | ~700 | can clearly display a variety of subcellular organelle structures without washing | clearly and simultaneously display the structure of mitochondria and chromosomes without washing | more than 20 fold | very low | almost negligible | –
2 | CN(CCOC(=O)NCc1ccc(COc2nccc(N)n2)cc1)c1ccc2nc(/C=C(\C#N)C(=O)OC(C)(C)C)ccc2c1 [Probe 3] | 621 | 550 | <0.001 | 0.41 | – | – | – | – | – | – | – | – | – | 473
3 | CN(CCOC(=O)NCc1ccc(COc2nccc(N)n2)cc1)c1ccc2c(c1)C(C)(C)c1cc(/C=C(\C#N)C(=O)OC(C)(C)C)oc1-2 [Probe 29] | 1024 | 652 | <0.001 | 0.57 | – | – | – | – | – | – | – | – | – | 933

Further lines, with some results ahead:

Row | Fluorescence ratio in glycerol methanol [1] | Emission wavelength [1] [nm] | Quantum yield of free probe [2] | Quantum yield of binding protein tags [9] | Structure (SMILES) | Fluorescence activation multiple [3] | Quantum yield of binding protein tags [3] | Fluorescence signal in Hela-WT cells (without protein tags) [4] | Increase of fluorescence signal in cells expressing protein tags [4] [times] | Display of subcellular organelle structures [5] | Display of mitochondria and chromosomes in the same cell [6] | Liver fluorescence intensity of pcdna3.1-SNAP mice relative to the contrastive group [7] | Liver fluorescence of mice injected with contrastive plasmid pcdna3.1-CAT [7] | Fluorescence signal of SNAP-IAA17-H2B protein after IAA addition [8] | Fluorescence activation multiple [9]
4 | 1125 | 645 | <0.001 | 0.55 | CN(CCOC(=O)NCc1ccc(COc2nccc(N)n2)cc1)c1ccc2c(c1)C(C)(C)c1cc(/C=C(\C#N)C(=O)OC(C)(C)C)sc1-2 [Probe 24] | – | – | – | – | – | – | – | – | – | 535
5 | 1123 | 675 | <0.001 | – | CN(CCOC(=O)NCc1ccc(COc2nc(N)nc3[nH]cnc23)cc1)c1ccc2c(c1)C(C)(C)c1cc(/C=C(\C#N)c3nc4ccccc4s3)sc1-2 [Probe 18] | 890 | 0.48 | no corresponding fluorescence signal is detected | ~700 | can clearly display a variety of subcellular organelle structures without washing | – | – | – | – | –
6 | 782 | 670 | <0.001 | 0.41 | CN(CCOC(=O)NCc1ccc(COc2nccc(N)n2)cc1)c1ccc2c(c1)C(C)(C)c1cc(/C=C(\C#N)c3nc4ccccc4o3)sc1-2 [Probe 25] | – | – | – | – | – | – | – | – | – | 421
7 | 522 | 675 | <0.001 | 0.46 | CN(CCOC(=O)NCc1ccc(COc2nccc(N)n2)cc1)c1ccc2c(c1)C(C)(C)c1cc(/C=C(\C#N)c3nc4ccccc4s3)sc1-2 [Probe 26] | – | – | – | – | – | – | – | – | – | 478
